Converted amounts (≈) assume the structure as drawn. The source made the active and inactive calls. The calls are words filed in the database; no cut-off is given here.
Legend:
[1] = test system: Hepatocyte; assay: Stability in human hepatocytes assessed per million cells
[2] = Ratio of free plasma concentration in Brown Norway rat at 3 umol/kg to pIC50 for recombinant human CCR4 expressed in CHO-K1 cells; type: ADME, cell-based; conditions: in vivo
[3] = Volume of distribution at steady state in rat at 9 umol/kg, po or 3 umol/kg, iv; type: ADME, organism-based; conditions: in vivo, read-out: Vdss
[4] = Volume of distribution at steady state in dog at 9 umol/kg, po or 3 umol/kg, iv; type: ADME, organism-based, Canis lupus familiaris; conditions: in vivo, read-out: Vdss
[5] = target: T1, C-C chemokine receptor type 1 (Homo sapiens) (UniProt P32246); assay: Antagonist activity at CCR1 (unknown origin) at 10 uM; type: functional
T1 sequence (whole entry): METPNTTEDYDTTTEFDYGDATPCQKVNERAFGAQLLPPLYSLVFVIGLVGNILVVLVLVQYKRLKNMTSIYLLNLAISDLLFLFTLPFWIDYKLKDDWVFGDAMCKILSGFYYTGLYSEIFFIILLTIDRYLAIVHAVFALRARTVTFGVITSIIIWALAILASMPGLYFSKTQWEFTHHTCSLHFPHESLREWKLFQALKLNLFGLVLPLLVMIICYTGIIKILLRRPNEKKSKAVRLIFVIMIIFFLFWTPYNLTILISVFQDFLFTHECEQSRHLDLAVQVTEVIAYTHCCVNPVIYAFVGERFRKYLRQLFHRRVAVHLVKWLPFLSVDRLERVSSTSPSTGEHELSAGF

[6] = Terminal trough concentration in OVA-induced Brown Norway rat plasma at 15 umol/kg, po bid measured 12 hrs post last dose; type: ADME, organism-based; conditions: read-out: Cmin
[7] = Lipophilicity, log D of the compound; type: physicochemical; conditions: octanol/water
[8] = Half life in rat at 9 umol/kg, po or 3 umol/kg, iv; type: ADME, organism-based; conditions: in vivo
[9] = test system: Rattus norvegicus; assay: Terminal trough concentration in OVA-induced Brown Norway rat plasma at 0.22 to 2.2 umol/kg, po bid measured 12 hrs post last dose; type: ADME, organism-based; conditions: in vivo, BLD = below limit of detection
[10] = Oral bioavailability in rat at 9 umol/kg; type: ADME, organism-based; conditions: in vivo
[11] = target: T2, C-C chemokine receptor type 4 (Homo sapiens) (UniProt P51679); assay: Agonist activity at CCR4 (unknown origin) up to 10 uM; type: functional
T2 sequence (whole entry): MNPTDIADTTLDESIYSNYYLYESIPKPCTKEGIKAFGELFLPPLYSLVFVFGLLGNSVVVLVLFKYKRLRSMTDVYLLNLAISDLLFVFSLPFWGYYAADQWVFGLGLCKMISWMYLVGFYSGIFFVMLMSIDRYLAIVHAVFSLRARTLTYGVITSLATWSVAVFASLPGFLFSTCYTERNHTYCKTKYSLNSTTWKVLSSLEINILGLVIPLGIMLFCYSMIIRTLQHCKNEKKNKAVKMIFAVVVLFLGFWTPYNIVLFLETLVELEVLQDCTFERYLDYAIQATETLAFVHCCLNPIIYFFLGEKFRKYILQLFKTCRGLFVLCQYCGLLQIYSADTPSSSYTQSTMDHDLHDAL

[12] = target: T3, C-X-C chemokine receptor type 2 (Homo sapiens) (UniProt P25025); assay: Antagonist activity at CXCR2 (unknown origin) at 10 uM; type: functional
T3 sequence (whole entry): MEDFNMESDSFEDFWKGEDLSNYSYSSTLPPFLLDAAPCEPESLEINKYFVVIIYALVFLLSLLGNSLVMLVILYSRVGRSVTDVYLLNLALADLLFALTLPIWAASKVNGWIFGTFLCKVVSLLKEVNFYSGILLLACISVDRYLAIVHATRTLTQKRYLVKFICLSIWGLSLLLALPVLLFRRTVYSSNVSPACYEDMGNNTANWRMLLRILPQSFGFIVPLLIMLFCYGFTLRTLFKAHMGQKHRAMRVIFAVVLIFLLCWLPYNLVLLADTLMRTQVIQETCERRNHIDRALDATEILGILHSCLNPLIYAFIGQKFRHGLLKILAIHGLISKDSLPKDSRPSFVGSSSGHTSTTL

[13] = test system: Rattus norvegicus; assay: Antiinflammatory activity in OVA-induced Brown Norway rat lung assessed as reduction in leukocyte trafficking in microvasculature administered po bid 1 hr prior to antigen challenge and every 12 hrs prior to termination 96 hrs post challenge by histopathological analysis; type: functional, organism-based
[14] = target: C-C chemokine receptor type 8 (Homo sapiens) (UniProt P51685); assay: Antagonist activity at CCR8 (unknown origin) at 10 uM; type: functional
Sequence of C-C chemokine receptor type 8 (Homo sapiens) (P51685 whole entry): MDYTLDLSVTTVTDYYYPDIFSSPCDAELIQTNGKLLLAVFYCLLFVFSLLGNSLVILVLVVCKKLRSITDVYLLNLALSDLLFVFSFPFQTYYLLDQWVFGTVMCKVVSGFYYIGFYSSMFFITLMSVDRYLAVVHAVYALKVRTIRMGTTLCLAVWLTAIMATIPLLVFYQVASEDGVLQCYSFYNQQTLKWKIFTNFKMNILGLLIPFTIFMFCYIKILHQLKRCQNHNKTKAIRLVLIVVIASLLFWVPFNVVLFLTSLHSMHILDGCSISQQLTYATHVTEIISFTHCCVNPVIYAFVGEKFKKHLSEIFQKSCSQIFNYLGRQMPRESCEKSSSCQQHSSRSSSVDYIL

[15] = Clearance in dog at 9 umol/kg, po or 3 umol/kg, iv; type: ADME, organism-based, Canis lupus familiaris; conditions: in vivo
[16] = target: T4, C-C chemokine receptor type 4 (Homo sapiens, UniProt P51679); assay: Antagonist activity at human CCR4 expressed in CHO cells coexpressing CD4+ assessed as inhibition of CCL22 induced Ca2+ mobilization; type: functional, cell-based
T4 sequence (P51679 whole entry): T2 sequence (whole entry)

[17] = target: T4, C-C chemokine receptor type 4; assay: Antagonist activity at recombinant human CCR4 expressed in CHO-K1 cells assessed as inhibition of CCL22 induced Ca2+ mobilization after 2 hrs by FMAT based fluorescence assay; type: functional, cell-based
[18] = target: T5, C-C chemokine receptor type 4 (Mus musculus, UniProt P51680); assay: Antagonist activity at mouse CCR4; type: functional
T5 sequence (P51680 whole entry): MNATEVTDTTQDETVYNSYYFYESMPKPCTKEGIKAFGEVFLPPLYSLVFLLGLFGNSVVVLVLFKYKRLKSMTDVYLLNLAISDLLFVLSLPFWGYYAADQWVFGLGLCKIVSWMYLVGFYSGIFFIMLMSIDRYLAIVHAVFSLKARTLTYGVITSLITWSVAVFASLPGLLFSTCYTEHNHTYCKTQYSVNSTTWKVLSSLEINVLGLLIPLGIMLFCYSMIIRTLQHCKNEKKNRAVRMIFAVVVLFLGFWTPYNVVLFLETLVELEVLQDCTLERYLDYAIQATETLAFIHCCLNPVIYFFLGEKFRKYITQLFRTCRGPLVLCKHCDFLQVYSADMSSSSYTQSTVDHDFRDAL

[19] = Oral bioavailability in dog at 9 umol/kg; type: ADME, organism-based, Canis lupus familiaris; conditions: in vivo
[20] = Solubility of the compound; type: physicochemical
[21] = Ratio of free plasma concentration in Brown Norway rat at 15 umol/kg to pIC50 for recombinant human CCR4 expressed in CHO-K1 cells; type: ADME, cell-based; conditions: in vivo
[22] = target: T6, C-C chemokine receptor type 7 (Homo sapiens) (UniProt P32248); assay: Antagonist activity at CCR7 (unknown origin) at 10 uM; type: functional
T6 sequence (whole entry): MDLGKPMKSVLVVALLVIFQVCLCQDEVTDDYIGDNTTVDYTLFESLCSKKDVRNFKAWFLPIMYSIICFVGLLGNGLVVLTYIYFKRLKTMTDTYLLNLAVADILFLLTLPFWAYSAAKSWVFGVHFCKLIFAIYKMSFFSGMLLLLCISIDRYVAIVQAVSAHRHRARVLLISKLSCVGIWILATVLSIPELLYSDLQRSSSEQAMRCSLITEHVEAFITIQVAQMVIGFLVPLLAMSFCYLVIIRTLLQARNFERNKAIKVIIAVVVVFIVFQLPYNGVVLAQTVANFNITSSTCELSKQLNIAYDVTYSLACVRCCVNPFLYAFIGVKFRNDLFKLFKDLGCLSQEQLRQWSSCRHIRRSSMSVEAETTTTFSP

[23] = Protein binding in human plasma; type: ADME, cell-free; conditions: read-out: PPB (converted)

Q: With COc1nccnc1NS(=O)(=O)c1cccc(Cl)c1Cl as the compound, how does the Stability [1] read?
A: The Stability was < 0.2 uL/ml.

Q: And the Ratio [2]?
A: The Ratio was 0.6.

Q: And the Vd [3]?
A: The Vd was 0.2 L/kg.

Q: What about the Vd [4] of the same compound?
A: The Vd was 0.1 L/kg.

Q: What about the Activity [5] of the same compound?
A: Its Activity is “inactive”.

Q: What about the concentration at 12 h [6] of the same compound?
A: The concentration at 12 h was 490 nM.

Q: What about the logD [7] of the same compound?
A: Its logD is 0.35.

Q: What about the half-life [8] of the same compound?
A: Its half-life is 1.7 h.

Q: What about the Cmin [9] of the same compound?
A: Its Cmin is “Bld”.

Q: And the bioavailability [10]?
A: The bioavailability was 100%.

Q: What about the Activity [11] of the same compound?
A: The Activity was “inactive”.

Q: And the Activity [12]?
A: The Activity was “inactive”.

Q: What about the Activity [13] of the same compound?
A: The Activity was “Dose-dependent effect”.

Q: What about the Activity [14] of the same compound?
A: The Activity was “inactive”.

Q: And the clearance [15]?
A: Its clearance is 1.5 mL/min/kg.

Q: And the IC50 [16]?
A: Its IC50 is 31.6 nM.

Q: What about the IC50 [17] of the same compound?
A: Its IC50 is 15.8 nM.

Q: What about the IC50 [18] of the same compound?
A: Its IC50 is 10 nM.

Q: And the bioavailability [19]?
A: Its bioavailability is 100%.

Q: And the solubility [20]?
A: The solubility was 1500 µg/mL (≈ 4.49 mM).

Q: And the Ratio [21]?
A: Its Ratio is 9.

Q: What about the Activity [22] of the same compound?
A: Its Activity is “inactive”.

Q: And the fraction unbound [23]?
A: Its fraction unbound is 0.011.

Source: ChEMBL document CHEMBL4130457, “Discovery of AZD-2098 and AZD-1678, Two Potent and Bioavailable CCR4 Receptor Antagonists” (ACS Med Chem Lett, 2017)
